According to article PMC9515952, “Tentative exploration of pharmacodynamic substances: Pharmacological effects, chemical compositions, and multi-components pharmacokinetic characteristics of ESZWD in CHF-HKYd rats” (Frontiers in Cardiovascular Medicine, 2022):
Read-outs that look alike come from different tables or passages of the source.

What was measured:
[1] = Pharmacokinetics of four components of ESZWD in CHF-HKYd rat serum by UPLC-MS/MS; format: in vivo; settings: CHF-HKYd rat serum after oral administration of ESZWD, mean ± SD, n = 6
Description: All rats were randomly divided into control group, model group, ESZWD low-dose (3.96 g/kg), medium-dose (7.92 g/kg), high-dose (15.84 g/kg) groups, and positive control group (benazepril, 0.5 mg/kg), with six rats in each group. The CHF-HKYd was established after 1 week of feeding. ESZWD and benazepril were administered by gavage separately for 4 weeks after successful modeling, except for the control group. Blood was collected for 5, 10, 20, 30, 45 min, 1, 2, 4, 6, 8, 12, and 24 h, standing for 2 h and centrifuged at 4°C, 3,500 rpm for 10 min, the supernatant was retained. The state of rats was observed and the urine volume at 24 h was measured. The structure and function of rat heart were evaluated by doppler ultrasonography. Serum biomarkers including myocardial injury indicators NT-proBNP, angiotensinII (AngII), aldosterone (ALD), reactive oxygen species (ROS), superoxide dismutase (SOD), malondialdehyde (MDA), and tumor necrosis factor α (TNF-α) and interleukin 6 (IL-6) were detected by ELISA.
Chromatographic analysis was performed using ACQUITY UPLC BEH C18 column (2.1 × 50 mm, […]), the mobile phase was acetonitrile (A) 0.1% formic acid water (B), the flow rate was set as 0.2 mL·min^−1, the column temperature was 35°C, the injection volume was 2 μL, and the gradient conditions were as follows: 0–8 min: 6–11%A, 8–23 min: 11–19%A, 23–45 min: 19–38%A, 45–55 min: 38–47%A, 55–55.1 min: 47–52%A, 55.1–65 min: 52–90%A, 65–66 min: 90–6%A of UPLC-Q-TOF/MS analysis and 0–3 min: 8–10%A, 3–3.5 min: 10–70% A, 3.5–5: 70–80%A, 5–5.1 min: 80–8% A, 5.1–6 min: 8% A of UPLC-MS/MS.
Mass spectrometric detection of UPLC-MS/MS analysis was carried out on electrospray ionization (ESI) ion source, multiple reaction monitoring (MRM) mode, ion spray voltage of 5,500 V, the curtain gas and collision gas were 40 and 9 kPa, respectively, declustering potential (DP) and collision voltage (CE) are shown in Table 1.

[2] = Stability of four compounds in rat serum (UPLC-MS/MS method validation); settings: n = 5; for Stability, Room temperature, Mean ± SD: 4 h at room temperature (25°C); for Stability, Automatic sampler, Mean ± SD: 8 h in the automatic sampler; for Stability, Long-term freeze, Mean ± SD: 7 d at −80°C; for Stability, Multigelation, Mean ± SD: three freeze and thaw cycles
Description: The stability of all probe drugs was evaluated by LQC and HQC samples under different experimental conditions, including short-term stability [4 h at room temperature (25°C), 8 h in the automatic sampler, and three freeze and thaw cycles, respectively] and long-term stability (7 d at −80°C).

[3] = added 20 ng/mL (salsolinol) or 1 ng/mL (others)
[4] = added 100 ng/mL (salsolinol) or 10 ng/mL (others)
[5] = added 750 ng/mL (salsolinol) or 150 ng/mL (others)

| SMILES | V/F [1] [L/kg] | Stability, Room temperature, Mean ± SD [2, 3] [ng/mL] | Stability, Room temperature, Mean ± SD [2, 4] [ng/mL] | Stability, Room temperature, Mean ± SD [2, 5] [ng/mL] | Stability, Automatic sampler, Mean ± SD [2, 3] [ng/mL] | Stability, Automatic sampler, Mean ± SD [2, 4] [ng/mL] | Stability, Automatic sampler, Mean ± SD [2, 5] [ng/mL] | Stability, Long-term freeze, Mean ± SD [2, 3] [ng/mL] | Stability, Long-term freeze, Mean ± SD [2, 4] [ng/mL] | Stability, Long-term freeze, Mean ± SD [2, 5] [ng/mL] | Stability, Multigelation, Mean ± SD [2, 3] [ng/mL] | Stability, Multigelation, Mean ± SD [2, 4] [ng/mL] | Stability, Multigelation, Mean ± SD [2, 5] [ng/mL] | other results |
| --- | --- | --- | --- | --- | --- | --- | --- | --- | --- | --- | --- | --- | --- | --- |
| C[C@@H]1NCCc2cc(O)c(O)cc21 [Salsolinol] | 40.68 ± 9.03 | 21.07 ± 0.74 | 112.2 ± 4.13 | 700.5 ± 49.6 | 20.68 ± 0.61 | 111.3 ± 2.63 | 716.3 ± 22.1 | 20.9 ± 1.2 | 103.9 ± 6.16 | 685.1 ± 43.66 | 21.15 ± 0.54 | 110.7 ± 1.34 | 727.6 ± 68.05 | AUC(0−t) [1]: 2,327 ± 261.0 ng/mL·h; AUC(0−∞) [1]: 2,344 ± 265.7 ng/mL·h; CL/F [1]: 8.625 ± 0.96 L/h/kg; Cmax [1]: 314.2 ± 36.84 ng/mL; T1/2 [1]: 3.271 ± 0.58 h; Tmax [1]: 1.25 ± 0.59 h; T1/2 ([1]; listed as salsolinol): about 3 h |
| CCN1C[C@]2(COC)[C@H](O)C[C@H](OC)[C@@]34[C@@H]5C[C@@]6(O)[C@H](OC(=O)c7ccccc7)[C@@H]5[C@@](OC(C)=O)([C@@H]([C@H](OC)[C@H]23)[C@@H]14)[C@@H](O)[C@@H]6OC [Aconitine] | 2679 ± 1574 | 1.049 ± 0.05 | 9.558 ± 0.29 | 163.7 ± 5.25 | 1.087 ± 0.12 | 9.053 ± 0.24 | 162.6 ± 9.72 | 1.082 ± 0.05 | 10.05 ± 0.97 | 157.4 ± 3.86 | 1.125 ± 0.11 | 9.042 ± 0.48 | 156.9 ± 8.39 | AUC(0-inf) ([1]; Sprague-Dawley (SD), in vivo): 50.1 ± 16 ng·h/mL; AUC(0-t) ([1]; Sprague-Dawley (SD), in vivo): 48.9 ± 16.4 ng·h/mL; half-life ([1]; Sprague-Dawley (SD), in vivo): 4.24 ± 1.83 h; CL/F ([1]; Sprague-Dawley (SD), in vivo, read-out: CL/F (converted)): 425 L/h/kg; Cmax ([1]; Sprague-Dawley (SD), in vivo, read-out: Cmax): 8.96 ± 2.22 ng/mL; Tmax ([1]; Sprague-Dawley (SD), in vivo, read-out: Tmax): 0.75 h; half-life ([1]; Sprague-Dawley, in vivo): ~4 h |
